The values that follow come from PMC5247774 (Bioconjugate Chemistry, 2016).

The target in the experiment is T1, SERPINB3 (SB3) (Homo sapiens, UniProt P29508).
T1 sequence (P29508 1-390): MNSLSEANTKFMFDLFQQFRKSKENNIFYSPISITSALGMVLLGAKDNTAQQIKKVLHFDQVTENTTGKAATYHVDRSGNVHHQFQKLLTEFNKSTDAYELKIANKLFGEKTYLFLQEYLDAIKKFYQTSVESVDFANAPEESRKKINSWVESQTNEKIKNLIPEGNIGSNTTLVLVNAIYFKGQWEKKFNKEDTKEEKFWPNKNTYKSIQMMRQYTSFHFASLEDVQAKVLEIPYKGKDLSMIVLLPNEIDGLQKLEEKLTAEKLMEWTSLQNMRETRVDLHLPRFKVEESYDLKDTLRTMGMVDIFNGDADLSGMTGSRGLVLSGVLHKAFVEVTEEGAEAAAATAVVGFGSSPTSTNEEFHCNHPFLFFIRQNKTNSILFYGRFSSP
Type of experiment: binding. To be noted: SPR, increasing concentrations.

Take CPNFDWDPNNSNAGFAPDLQHDPFFGLP [CysPreS1]: the “interaction with SB3 (in words)” value is given as “did not reveal any interaction”.
